The results in this text go back to US10202371B2, “Oxazolidin-2-one-pyrimidine derivatives and the use thereof as phosphatidylinositol-3-kinase inhibitors” (Novartis AG, priority 2012, dated 2019).

Series [1] in a line: In vitro skin penetration and permeation, pig skin in Franz-type diffusion cells. It is filed as in vitro ADME. The conditions noted are these: for Permeation rate: pig skin, 48 hours exposure. As for the experimental part: The compound was applied as 0.5% solutions in propylene glycol mixed with either ethanol or oleylalcohol to pig skin mounted in static Franz-type diffusion cells. At the end of a 48 hours exposure time, drug concentrations were measured in the skin (after removal of stratum corneum) and in the receiver. The receiver solution is a mixture of two volume parts of phosphate-buffered saline (PBS) and one volume part of fetal calf serum (FCS).

Series [2] deals with human PI3Kalpha p110 catalytic subunit (Rat-1 cells) (Homo sapiens (Human), UniProt P42336). The series is described as follows: Cellular assay PI3Kalpha, p-Akt(S473) SureFire in Rat-1_PI3Kalpha cells. The class given is cell-based. The conditions noted are these: p-AKT(Ser473), 1 h treatment. The text has this:
AlphaScreen (Amplified Luminescent Proximity Homogeneous Assay, ALPHA, Perkin Elmer) is a non-radioactive bead-based proximity assay technology to study biomolecular interactions in a homogenous microtiter plate format. The brand name SureFire denotes AlphaScreen assays that are adapted to quantify the phosphorylation of endogenous cellular proteins in cell lysates, by using matched antibody pairs, which consist of an anti-phospho-kinase and an anti-kinase antibody. The assay allows characterization of kinase signaling in cells as well as measurement of kinase inhibitor effects. The AlphaScreen technology provides several advantages over standard assay techniques such as ELISA, as it avoids time-consuming washing procedures and reduces plate handling. Furthermore, it is miniaturizable at least to a 384-well format and provides sensitivity down to the femtomolar range, dependent on the affinity of the antibodies included in the individual AlphaScreen SureFire assay kit. High sensitivity is reached by an intrinsic amplification mechanism, which involves production of singlet oxygen molecules. SureFire assay kits are commercially available for specific targets and include pairs of validated antibodies (PerkinElmer). […]

Sequence of human PI3Kalpha p110 catalytic subunit (Rat-1 cells) (P42336 whole entry): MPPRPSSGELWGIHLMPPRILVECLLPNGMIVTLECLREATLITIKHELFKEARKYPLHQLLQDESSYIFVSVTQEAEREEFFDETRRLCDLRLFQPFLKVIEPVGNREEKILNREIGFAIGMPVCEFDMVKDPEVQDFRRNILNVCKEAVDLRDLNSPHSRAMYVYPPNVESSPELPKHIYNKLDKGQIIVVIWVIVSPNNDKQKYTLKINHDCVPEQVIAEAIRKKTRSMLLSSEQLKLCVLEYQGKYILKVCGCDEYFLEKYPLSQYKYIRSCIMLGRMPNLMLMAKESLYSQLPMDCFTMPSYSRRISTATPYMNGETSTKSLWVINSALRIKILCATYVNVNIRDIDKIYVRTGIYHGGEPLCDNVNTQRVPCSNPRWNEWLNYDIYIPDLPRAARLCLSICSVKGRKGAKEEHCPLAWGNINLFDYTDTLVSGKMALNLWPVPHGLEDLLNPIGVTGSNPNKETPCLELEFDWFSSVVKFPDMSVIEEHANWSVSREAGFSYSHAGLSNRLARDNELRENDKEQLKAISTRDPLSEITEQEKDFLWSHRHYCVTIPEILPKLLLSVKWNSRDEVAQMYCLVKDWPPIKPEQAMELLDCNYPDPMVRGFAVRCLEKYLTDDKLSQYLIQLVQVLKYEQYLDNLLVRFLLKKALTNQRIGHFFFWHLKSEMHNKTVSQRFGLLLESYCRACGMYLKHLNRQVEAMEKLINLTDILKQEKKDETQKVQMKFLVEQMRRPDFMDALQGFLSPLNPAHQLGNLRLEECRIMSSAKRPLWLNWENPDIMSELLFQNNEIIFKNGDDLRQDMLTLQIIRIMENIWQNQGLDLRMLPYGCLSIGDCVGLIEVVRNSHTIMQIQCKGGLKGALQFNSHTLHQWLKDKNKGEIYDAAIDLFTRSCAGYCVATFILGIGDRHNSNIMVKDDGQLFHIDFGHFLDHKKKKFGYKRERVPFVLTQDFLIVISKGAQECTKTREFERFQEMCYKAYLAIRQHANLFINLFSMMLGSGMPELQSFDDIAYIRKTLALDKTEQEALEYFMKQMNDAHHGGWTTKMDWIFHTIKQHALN
Sequence of human PI3Kalpha p110 catalytic subunit (Rat-1 cells) (Q63787 whole entry partner): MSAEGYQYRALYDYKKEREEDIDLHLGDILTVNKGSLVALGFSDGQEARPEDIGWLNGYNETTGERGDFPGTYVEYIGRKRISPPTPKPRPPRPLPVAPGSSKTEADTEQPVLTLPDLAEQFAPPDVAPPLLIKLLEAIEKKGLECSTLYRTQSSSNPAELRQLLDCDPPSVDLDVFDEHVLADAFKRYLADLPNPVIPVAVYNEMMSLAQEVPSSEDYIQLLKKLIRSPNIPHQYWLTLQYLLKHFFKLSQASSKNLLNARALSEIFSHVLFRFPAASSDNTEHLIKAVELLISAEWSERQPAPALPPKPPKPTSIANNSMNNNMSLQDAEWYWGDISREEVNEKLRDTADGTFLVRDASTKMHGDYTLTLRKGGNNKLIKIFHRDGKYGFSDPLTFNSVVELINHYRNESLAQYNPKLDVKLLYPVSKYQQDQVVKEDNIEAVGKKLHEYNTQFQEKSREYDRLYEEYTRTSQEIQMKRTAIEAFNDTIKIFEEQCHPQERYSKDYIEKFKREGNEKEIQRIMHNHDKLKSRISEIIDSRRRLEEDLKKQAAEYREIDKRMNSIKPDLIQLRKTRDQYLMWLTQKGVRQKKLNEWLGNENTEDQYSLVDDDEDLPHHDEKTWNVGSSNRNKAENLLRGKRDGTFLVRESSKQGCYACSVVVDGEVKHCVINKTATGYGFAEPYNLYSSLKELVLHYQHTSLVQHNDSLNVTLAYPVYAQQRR

On to `C[C@H]1[C@H](c2nccs2)OC(=O)N1c1cc(-c2cnc(N)nc2C(F)(F)F)nc(N2CCOCC2)n1` [Example 1, (4S,5R)-3-(2′-Amino-2-morpholin-4-yl-4′-trifluoromethyl-[4,5′]bipyrimidinyl-6-yl)-4-methyl-5-thiazol-2-yl-oxazolidin-2-one], for which, in series [1] (pig skin in vitro), the “permeation rate through pig skin (in words)” value is given as “low”. Further, the Permeation rate was found to be 1.0 ± 0.3 ng/cm^2/hr in series [1] (0.5% in PG + ethanol (7 + 3)) and 301.1 ± 129.5 ng/cm^2/hr in series [1] (0.5% in PG/OA (9 + 1)).

Compound `Nc1ncc(-c2cc(N3C(=O)O[C@@H](c4ccccc4)[C@@H]3CO)nc(N3CCOCC3)n2)c(C(F)(F)F)n1` [Example 10] returned a Rat1-PI3Ka/IC50 in series [2] of 0.085 umol I-1.
